Laboratory results: ChEMBL document CHEMBL1201862, “PubChem BioAssay data set” (2004)
Active and inactive are the calls of the source.

Assays:
CAAX prenyl protease 2 = biological target: T1, CAAX prenyl protease 2 (Saccharomyces cerevisiae S288c, UniProt Q03530); assay type: biochemical
T1 sequence (Q03530 whole entry): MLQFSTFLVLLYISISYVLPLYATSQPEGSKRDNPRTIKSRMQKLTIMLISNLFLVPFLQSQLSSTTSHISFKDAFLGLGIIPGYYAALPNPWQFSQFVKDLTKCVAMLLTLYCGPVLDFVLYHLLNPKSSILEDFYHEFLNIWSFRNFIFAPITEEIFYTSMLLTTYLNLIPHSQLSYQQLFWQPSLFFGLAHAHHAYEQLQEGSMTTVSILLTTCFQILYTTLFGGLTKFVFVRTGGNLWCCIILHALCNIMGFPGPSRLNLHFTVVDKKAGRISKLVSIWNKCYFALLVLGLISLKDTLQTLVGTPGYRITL

[1] = biological target: T2, Alkaline phosphatase, tissue-nonspecific isozyme (Homo sapiens, UniProt P05186); experiment: potency against alkaline phosphatase TNAP – biochemical, luminescent, dose response, SAR follow-up (AID 1056)
T2 sequence (P05186 whole entry): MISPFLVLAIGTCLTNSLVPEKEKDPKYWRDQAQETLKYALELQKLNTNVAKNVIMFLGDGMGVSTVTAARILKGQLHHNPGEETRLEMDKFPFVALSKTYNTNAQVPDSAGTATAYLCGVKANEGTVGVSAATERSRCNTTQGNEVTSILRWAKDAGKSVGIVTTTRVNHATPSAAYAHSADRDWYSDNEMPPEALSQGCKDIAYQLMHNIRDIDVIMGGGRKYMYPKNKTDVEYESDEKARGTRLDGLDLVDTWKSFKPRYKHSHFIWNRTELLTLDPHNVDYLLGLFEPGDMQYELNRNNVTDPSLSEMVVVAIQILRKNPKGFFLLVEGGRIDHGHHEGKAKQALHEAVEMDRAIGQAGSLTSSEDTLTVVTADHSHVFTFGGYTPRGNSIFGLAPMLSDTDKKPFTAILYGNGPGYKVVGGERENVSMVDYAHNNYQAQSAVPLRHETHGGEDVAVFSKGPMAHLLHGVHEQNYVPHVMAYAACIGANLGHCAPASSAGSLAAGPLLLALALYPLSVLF

[2] = biological target: Glyceraldehyde-3-phosphate dehydrogenase (Homo sapiens, UniProt P04406)
[3] = biological target: Peroxisome proliferator-activated receptor gamma/Nuclear receptor coactivator 2 (Homo sapiens, UniProt P37231); experiment: (§1) TR-FRET dose response biochemical High Throughput Screening assay for agonists of the steroid receptor coactivator 2 (SRC-2) recruitment by the peroxisome proliferator-activated receptor gamma (PPAR gamma): non-selective agonists. [Related pubchem assays: 1297, 1032 ]; assay type: functional
[4] = biological target: Peroxisome proliferator-activated receptor gamma/Nuclear receptor coactivator 1 (Homo sapiens, UniProt P37231); experiment: as §1, with “1 (SRC-1)” for “2 (SRC-2)”, “assays (depositor defined):AID1300, AID1808, AID504735, AID631]” for “assays: 1297, 1032 ]”; assay type: protein assay
[5] = biological target: Peroxisome proliferator-activated receptor gamma/Nuclear receptor coactivator 3 (Homo sapiens, UniProt P37231); experiment: as §1, with “3 (SRC-3)” for “2 (SRC-2)”, “1301 (Confirmation screen.), 1048 (Primary screen.)]” for “1297, 1032 ]”; assay type: functional
[6] = biological target: T3, Rac GTPase-activating protein 1 (Homo sapiens, UniProt Q9H0H5); experiment: blockers of MgcRacGAP-driven Rac1 GTP hydrolysis – biochemical, ADP Hunter fluorescence, primary and confirmatory, confirmation (AID 624330); assay type: functional
T3 sequence (Q9H0H5 whole entry): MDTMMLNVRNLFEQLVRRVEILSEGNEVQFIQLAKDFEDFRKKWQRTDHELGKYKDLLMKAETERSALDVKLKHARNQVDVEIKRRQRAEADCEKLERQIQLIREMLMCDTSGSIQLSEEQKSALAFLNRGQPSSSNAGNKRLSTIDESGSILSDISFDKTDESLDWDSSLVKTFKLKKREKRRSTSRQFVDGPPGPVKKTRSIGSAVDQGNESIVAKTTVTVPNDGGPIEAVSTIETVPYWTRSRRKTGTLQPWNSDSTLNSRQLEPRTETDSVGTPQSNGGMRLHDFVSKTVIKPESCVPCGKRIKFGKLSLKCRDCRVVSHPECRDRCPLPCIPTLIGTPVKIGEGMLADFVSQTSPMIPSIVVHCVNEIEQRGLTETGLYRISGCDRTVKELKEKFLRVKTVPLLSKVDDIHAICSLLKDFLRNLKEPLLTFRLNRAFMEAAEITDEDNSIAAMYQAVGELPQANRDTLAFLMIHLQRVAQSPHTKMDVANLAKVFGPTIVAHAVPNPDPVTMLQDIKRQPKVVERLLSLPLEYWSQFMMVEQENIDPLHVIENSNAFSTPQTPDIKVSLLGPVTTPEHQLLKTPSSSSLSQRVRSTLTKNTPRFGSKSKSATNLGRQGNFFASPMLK

ORF 73 = biological target: T4, ORF 73 (Human herpesvirus 8, UniProt O40947); experiment: KSHV LANA DNA-binding disruption – biochemical, fluorescence polarization, cherry-picked samples, dose response (AID 504725); parameters: species or system Human gammaherpesvirus 8;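 note: fluorescence polarization of a labeled DNA duplex reporting LANA DNA binding; potency is for inhibitors that block LANA binding to the DNA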
T4 sequence (O40947 whole entry): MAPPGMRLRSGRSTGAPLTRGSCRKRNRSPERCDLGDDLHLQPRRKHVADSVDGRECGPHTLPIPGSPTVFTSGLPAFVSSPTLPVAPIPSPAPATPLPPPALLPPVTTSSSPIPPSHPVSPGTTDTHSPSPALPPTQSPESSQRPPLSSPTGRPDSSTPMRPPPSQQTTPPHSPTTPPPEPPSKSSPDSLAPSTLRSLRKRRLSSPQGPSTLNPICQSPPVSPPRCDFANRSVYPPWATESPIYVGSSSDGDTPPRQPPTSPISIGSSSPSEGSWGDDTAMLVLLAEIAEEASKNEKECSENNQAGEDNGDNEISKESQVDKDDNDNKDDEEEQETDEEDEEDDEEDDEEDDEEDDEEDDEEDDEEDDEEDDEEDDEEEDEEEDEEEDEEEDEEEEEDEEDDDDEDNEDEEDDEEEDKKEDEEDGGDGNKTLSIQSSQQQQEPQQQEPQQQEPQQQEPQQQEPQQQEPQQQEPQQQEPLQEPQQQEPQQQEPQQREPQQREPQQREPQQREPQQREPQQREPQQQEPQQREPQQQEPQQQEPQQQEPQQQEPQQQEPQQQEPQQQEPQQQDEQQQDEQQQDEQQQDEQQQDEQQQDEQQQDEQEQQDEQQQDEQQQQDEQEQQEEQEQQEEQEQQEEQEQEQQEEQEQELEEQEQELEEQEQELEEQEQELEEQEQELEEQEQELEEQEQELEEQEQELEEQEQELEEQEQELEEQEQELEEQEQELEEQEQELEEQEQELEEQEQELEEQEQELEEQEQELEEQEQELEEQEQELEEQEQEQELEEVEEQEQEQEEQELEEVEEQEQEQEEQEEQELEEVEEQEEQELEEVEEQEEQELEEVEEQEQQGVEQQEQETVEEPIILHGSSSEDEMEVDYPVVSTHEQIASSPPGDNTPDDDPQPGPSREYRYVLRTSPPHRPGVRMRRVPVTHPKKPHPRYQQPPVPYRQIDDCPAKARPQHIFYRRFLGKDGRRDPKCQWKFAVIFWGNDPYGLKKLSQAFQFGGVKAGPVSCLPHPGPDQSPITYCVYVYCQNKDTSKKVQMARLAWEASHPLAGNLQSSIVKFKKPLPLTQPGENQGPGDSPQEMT

HEK293 [7] = experiment: optical interference in Abeta FP readout, dose response, artefact control for IDE activator project, biochemical, fluorescence polarization (AID 588442); assay type: functional, cell-based; details: Homo sapiens
HEK293 [8] = experiment: membrane integrity loss in HEK cells – cell-based, fluorescence, cytotoxicity control for IDE activator project, dose response (AID 588440); assay type: functional; details: Homo sapiens;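 note: cytotoxicity by LDH release measuring loss of membrane integrity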
Nonstructural protein 1 = Nonstructural protein 1 (Influenza A virus, UniProt Q194T2); assay type: functional, Influenza A virus (A/California/07/2009(H1N1))
Insulin-degrading enzyme [9] = biological target: T5, Insulin-degrading enzyme (Homo sapiens, UniProt P14735); experiment: recombinant IDE activation, cell-free – biochemical, fluorescence polarization, counter-screen for IDE activator project, dose response (AID 588681)
T5 sequence (P14735 whole entry): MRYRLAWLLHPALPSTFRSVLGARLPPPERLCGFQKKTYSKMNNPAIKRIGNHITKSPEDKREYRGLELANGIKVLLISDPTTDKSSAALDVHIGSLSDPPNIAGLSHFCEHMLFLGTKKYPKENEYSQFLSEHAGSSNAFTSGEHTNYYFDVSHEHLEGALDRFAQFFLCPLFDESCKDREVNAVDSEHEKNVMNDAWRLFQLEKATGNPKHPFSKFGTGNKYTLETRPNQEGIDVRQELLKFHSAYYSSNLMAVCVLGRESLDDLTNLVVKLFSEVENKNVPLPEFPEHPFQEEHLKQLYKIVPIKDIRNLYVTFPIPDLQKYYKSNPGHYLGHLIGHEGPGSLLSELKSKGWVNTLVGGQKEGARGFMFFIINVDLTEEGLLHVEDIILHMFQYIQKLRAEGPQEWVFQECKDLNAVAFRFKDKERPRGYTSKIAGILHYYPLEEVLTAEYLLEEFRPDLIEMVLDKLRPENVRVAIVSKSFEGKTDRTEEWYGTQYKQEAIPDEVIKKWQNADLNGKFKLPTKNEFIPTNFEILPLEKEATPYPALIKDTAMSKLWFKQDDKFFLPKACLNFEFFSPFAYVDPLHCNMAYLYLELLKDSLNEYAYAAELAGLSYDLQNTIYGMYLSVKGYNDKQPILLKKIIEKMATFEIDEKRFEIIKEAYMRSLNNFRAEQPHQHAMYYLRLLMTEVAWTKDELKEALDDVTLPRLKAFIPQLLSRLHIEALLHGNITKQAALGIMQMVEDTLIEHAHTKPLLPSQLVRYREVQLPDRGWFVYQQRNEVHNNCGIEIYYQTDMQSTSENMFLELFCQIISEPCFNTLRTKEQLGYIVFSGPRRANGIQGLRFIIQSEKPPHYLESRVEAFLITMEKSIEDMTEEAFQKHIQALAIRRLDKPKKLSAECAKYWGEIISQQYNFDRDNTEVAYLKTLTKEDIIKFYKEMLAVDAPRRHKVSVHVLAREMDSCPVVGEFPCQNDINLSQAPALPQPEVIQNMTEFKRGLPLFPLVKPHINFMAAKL

Insulin-degrading enzyme [10] = biological target: T5, Insulin-degrading enzyme; experiment: cellular IDE activation of Abeta substrate cleavage – fluorescence polarization, HEK cells, dose response (AID 588439); assay type: functional, cell-based
[11] = viability loss in HeLa cells – cytotoxicity control for MgcRacGAP inhibitor project, dose response (AID 624300); assay type: functional
HeLa = experiment: viability loss in HeLa cells – cell-based, 24 h, cherry-picked samples, cytotoxicity control, dose response (AID 504726); assay type: functional; details: Homo sapiens;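 note: potency for cytotoxicity as loss of luminescence signal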

Chain of Glyceraldehyde-3-phosphate dehydrogenase (P04406 whole entry): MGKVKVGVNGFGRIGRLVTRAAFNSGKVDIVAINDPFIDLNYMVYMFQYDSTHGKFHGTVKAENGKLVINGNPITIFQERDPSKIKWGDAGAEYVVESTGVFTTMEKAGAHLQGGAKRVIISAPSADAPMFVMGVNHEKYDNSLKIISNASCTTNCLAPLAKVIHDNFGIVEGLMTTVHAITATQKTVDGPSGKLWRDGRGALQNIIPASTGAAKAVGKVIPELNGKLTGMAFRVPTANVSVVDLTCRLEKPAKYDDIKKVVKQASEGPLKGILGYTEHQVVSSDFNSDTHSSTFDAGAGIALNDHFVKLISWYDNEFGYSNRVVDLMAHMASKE
Chain of Nonstructural protein 1 (Q194T2 whole entry): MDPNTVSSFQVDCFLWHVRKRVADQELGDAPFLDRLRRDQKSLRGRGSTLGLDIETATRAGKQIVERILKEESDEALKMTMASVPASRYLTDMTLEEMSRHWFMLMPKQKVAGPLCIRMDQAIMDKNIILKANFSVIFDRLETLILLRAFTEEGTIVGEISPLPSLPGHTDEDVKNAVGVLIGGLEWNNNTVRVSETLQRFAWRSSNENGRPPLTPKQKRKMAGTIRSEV
Chain of Peroxisome proliferator-activated receptor gamma/Nuclear receptor coactivator 3 (P37231 whole entry): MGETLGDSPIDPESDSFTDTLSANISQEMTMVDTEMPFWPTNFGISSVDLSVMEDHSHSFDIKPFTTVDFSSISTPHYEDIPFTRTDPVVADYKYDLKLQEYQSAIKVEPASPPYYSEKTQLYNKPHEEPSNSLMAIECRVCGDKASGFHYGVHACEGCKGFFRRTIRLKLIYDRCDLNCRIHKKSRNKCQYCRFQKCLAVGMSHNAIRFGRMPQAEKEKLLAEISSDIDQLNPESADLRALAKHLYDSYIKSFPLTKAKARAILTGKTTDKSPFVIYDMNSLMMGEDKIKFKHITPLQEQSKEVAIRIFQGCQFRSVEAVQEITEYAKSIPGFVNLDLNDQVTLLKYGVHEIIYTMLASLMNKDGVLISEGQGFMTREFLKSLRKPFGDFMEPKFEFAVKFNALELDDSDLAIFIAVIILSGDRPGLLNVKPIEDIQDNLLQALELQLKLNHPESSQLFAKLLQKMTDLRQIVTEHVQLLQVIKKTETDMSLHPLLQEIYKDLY
Chain of Peroxisome proliferator-activated receptor gamma/Nuclear receptor coactivator 3 (Q9Y6Q9 whole entry, further chain): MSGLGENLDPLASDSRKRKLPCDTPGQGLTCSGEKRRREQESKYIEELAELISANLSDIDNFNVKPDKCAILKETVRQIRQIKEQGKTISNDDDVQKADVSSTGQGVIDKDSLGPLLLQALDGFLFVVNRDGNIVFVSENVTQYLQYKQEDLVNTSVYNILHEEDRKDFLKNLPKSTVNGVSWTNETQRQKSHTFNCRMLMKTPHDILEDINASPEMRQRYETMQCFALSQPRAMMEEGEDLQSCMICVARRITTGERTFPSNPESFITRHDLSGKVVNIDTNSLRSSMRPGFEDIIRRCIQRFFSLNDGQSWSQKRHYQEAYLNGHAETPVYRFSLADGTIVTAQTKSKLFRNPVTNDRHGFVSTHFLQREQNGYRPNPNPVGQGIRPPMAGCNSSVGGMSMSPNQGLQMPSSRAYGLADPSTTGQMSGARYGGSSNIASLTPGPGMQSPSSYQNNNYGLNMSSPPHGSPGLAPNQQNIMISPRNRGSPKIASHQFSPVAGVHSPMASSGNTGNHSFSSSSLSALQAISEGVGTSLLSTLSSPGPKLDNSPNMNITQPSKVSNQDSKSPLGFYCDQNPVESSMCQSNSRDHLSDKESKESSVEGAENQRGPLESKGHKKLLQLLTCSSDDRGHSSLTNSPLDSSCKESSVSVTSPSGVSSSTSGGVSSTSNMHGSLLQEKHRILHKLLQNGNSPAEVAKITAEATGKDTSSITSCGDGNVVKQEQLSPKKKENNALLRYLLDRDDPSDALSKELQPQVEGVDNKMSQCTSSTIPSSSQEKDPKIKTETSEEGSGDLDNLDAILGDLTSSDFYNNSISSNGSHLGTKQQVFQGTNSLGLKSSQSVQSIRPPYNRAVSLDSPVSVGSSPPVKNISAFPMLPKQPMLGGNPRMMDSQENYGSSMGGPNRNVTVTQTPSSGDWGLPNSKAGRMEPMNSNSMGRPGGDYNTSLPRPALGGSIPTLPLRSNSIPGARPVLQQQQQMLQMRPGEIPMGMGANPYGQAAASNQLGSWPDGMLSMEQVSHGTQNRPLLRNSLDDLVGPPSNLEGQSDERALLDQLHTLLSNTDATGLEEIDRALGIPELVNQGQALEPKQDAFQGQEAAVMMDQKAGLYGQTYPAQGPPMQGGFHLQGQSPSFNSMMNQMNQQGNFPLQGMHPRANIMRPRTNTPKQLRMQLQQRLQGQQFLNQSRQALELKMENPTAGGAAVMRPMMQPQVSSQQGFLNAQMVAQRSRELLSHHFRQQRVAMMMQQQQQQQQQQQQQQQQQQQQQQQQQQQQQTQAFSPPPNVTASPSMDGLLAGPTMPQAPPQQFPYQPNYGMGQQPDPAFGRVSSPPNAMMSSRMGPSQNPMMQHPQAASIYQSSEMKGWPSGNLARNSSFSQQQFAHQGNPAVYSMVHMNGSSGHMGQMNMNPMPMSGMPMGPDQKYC
Chain of Peroxisome proliferator-activated receptor gamma/Nuclear receptor coactivator 1 (P37231 whole entry): as the sequence (P37231 whole entry) above
Chain of Peroxisome proliferator-activated receptor gamma/Nuclear receptor coactivator 1 (Q15788 whole entry, further chain): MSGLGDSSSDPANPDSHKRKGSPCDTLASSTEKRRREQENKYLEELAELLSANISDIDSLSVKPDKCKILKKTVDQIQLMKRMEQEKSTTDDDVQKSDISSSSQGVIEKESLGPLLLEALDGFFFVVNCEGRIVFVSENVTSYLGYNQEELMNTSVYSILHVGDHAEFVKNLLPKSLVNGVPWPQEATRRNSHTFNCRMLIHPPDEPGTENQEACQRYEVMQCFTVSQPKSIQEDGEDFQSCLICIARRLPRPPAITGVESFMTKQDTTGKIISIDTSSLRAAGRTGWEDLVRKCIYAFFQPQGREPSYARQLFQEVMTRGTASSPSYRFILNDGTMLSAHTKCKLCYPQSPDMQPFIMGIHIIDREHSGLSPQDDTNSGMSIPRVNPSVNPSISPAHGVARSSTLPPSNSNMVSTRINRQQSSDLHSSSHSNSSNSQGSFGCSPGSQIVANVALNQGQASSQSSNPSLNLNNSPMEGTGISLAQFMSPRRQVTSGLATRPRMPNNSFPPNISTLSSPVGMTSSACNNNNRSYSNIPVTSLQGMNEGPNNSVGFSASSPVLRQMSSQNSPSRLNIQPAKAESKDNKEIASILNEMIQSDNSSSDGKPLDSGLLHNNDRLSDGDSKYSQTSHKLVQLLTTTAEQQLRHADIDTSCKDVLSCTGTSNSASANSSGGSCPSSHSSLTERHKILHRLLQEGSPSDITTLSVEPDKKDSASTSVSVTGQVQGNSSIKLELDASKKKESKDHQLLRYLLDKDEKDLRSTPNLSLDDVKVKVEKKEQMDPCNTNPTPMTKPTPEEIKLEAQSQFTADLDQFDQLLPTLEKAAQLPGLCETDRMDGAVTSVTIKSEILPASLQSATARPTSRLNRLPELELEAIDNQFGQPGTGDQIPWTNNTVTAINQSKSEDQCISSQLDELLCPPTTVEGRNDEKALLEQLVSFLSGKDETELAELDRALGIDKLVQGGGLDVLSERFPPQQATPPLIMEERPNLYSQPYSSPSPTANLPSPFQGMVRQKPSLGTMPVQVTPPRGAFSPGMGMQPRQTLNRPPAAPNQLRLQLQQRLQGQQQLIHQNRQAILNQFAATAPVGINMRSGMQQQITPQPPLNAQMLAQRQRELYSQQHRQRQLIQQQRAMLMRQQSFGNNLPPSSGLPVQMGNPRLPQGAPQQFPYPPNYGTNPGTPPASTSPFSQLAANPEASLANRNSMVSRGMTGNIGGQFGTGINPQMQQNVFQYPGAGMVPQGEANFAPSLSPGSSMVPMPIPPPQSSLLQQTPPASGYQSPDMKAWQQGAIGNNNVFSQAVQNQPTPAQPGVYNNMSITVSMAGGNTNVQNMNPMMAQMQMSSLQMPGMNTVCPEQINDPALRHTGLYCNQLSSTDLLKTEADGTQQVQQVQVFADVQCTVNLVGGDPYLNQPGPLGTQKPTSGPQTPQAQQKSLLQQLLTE

Compound: CCCn1c(O)c(N=NC(=O)CNC(=O)Cc2ccc(OC)cc2)c2ccccc21
- AC50 (CAAX prenyl protease 2): > 100 µM (inactive)

Compound: Cc1c(C(=O)O)nnn1-c1ccc(F)cc1
- IC50 [1]: > 100 µM (inactive)
- IC50 [2]: > 100 µM (not active)

Compound: COc1ccc2nc(SCc3cccnc3)c(C#N)cc2c1
- EC50 [3]: 9.26 µM (active)
- EC50 [4]: 9.56 µM (active)
- EC50 [5]: 22.1 µM (not active)

Compound: Nc1ccc2c3[nH]c4cc(N)ccc4cc-3nc2c1
- IC50 [6]: 44.7 µM (active)
- AC50 (ORF 73): 0.758 µM (active)
- EC50 (HEK293 [7]): > 54.7 µM (inactive)
- IC50 (HEK293 [8]): > 89.2 µM (inactive)
- IC50 (Nonstructural protein 1): 21.1 µM (active)
- EC50 (Insulin-degrading enzyme [9]): > 54.7 µM (inactive)
- EC50 (Insulin-degrading enzyme [10]): > 54.7 µM (inactive)
- CC50 [11]: 8.81 µM (active)
- AC50 (HeLa): 7.72 µM (active)
